In patent US12297218B2, “Complex comprising a PSMA-targeting compound linked to a lead or thorium radionuclide” (Sciencons AS, priority 2017, dated 2025):

Experiments:
[1] = tested on: PC3 PIP model; details: typical, mouse xenografts, other researchers; cited from earlier work
[2] = tested on: C4-2 PSMA-positive xenografts; assay: Biodistribution of radiolabelled ligands after intravenous injection in nude mice with C4-2 xenografts; details: for Tumor-to-kidney ratio / Kidney uptake / Tumor uptake: average; for Tumor-to-kidney ratio: 1-hour point after administration; for Kidney uptake / Tumor uptake: 4 hours after injection
Protocol: Each group usually consisted of three mice. […] Approximately 16 kBq of ^224Ra/^212Pb was injected in each animal, i.e., approximately 0.2 nmol of ligand per mouse. Animals were given anaesthesia and sacrificed by cervical dislocation followed by dissection and harvesting of tissue-, blood- and urine samples. The samples were weighed and counted on a gamma counter.
Three mice in each group. […] The molar concentration was the same for both products, i.e., 12.5 nmol per MBq. Approximately 16 kBq of ^224Ra/^212Pb was injected in each animal, i.e., approximately 0.2 nmol of ligand per mouse. Animals were given anaesthesia and sacrificed by cervical dislocation followed by dissection and harvesting of tissue-, blood- and urine samples. The samples were weighed and counted on a gamma counter.
Methods: Tumor and kidney uptake of ^212Pb-labeled p-SCN-Bn-TCMC-PSMA ligand 1 and ^177Lu-labeled PSMA-617 was compared at 1 hours and 4 hours after administration of the products by intravenous injection into nude mice with C4-2 xenografts as described in Example 9.

[3] = tested on: C4-2 PSMA positive human prostate cells; assay: Comparative therapy experiment in nude mice with C4-2 xenografts; format: in vivo; details: for Median survival: 52 MBq ^177Lu-PSMA-617 or 320 kBq ^212Pb-p-SCN-Bn-TCMC-PSMA ligand 1
Protocol: Male nude mice were inoculated in the flanks with C4-2 PSMA positive human prostate cells and 2 weeks later when tumors were 5-7 mm in diameters. Groups of 8 animals each received saline, 52 MBq of ^177Lu-PSMA-617 or 320 kBq of ^212Pb-p-SCN-Bn-TCMC-PSMA ligand 1. Animals were sacrificed when tumor size reached 20 mm due to animal welfare requirements. […] For ^212Pb the effective half-life was assumed to be 10.6 h, 10% of injected dose per gram decays in tumor and 100% of radiation in a tumor is absorbed in the tumor, 100% retention of ^212Pb and daughters in the tumors and 8 MeV radiation energy per decay. The tumor dosimetry for the injected activities gave on average 35.9 Gy to tumors for ^177Lu-PSMA-617 and 2.06 Gy to tumors for ^212Pb-p-SCN-Bn-TCMC-PSMA ligand 1 groups respectively.

[4] = tested on: PSMA-positive xenografts; assay: Biodistribution of single targeting solution (purified ^212Pb-p-SCN-Bn-TCMC-PSMA ligand 1) in mice with PSMA-positive xenografts; format: in vivo
Protocol: Each group usually consisted of three mice. The ^212Pb labelling was above 92% for the products.
Using a ^212Pb/^224Ra solution for reaction with p-SCN-Bn-TCMC-PSMA ligand 1 as described, purified ^212Pb-p-SCN-Bn-TCMC-PSMA ligand 1 was purified using a Sephadex G-10 gel filtration column and about 30 kBq and 300 ng of the purified radioligand product was injected per animal. […] The tumor-to-tissue ratios (Table 4) indicates suitability for radioligand targeting with ^212Pb.

[5] = tested on: C4-2 cells; assay: Prostate cancer cell binding of ligands labeled with ^212Pb; set-up: species or system human
Protocol: the cell binding fractions measured by adding about 1 ng of radioligand to 0.2 ml of C4-2 cells (5×10^7 cells per ml) in a 5 ml test tube and incubate for 1 h before measuring applied activity, wash cells 3 times with 0.5 ml 0.5% bovine serum albumin in DPBS and thereafter recount the washed cell pellet. […] Nonspecific binding was measured by blocking the cells with excess 10 μg/ml of unlabelled ligand before adding radioligand.

O=C([O-])CN1CCN(CC(=O)[O-])CCN(CC(=O)NCC2CCC(C(=O)N[C@@H](Cc3ccc4ccccc4c3)C(=O)NCCCC[C@H](NC(=O)N[C@@H](CCC(=O)O)C(=O)O)C(=O)O)CC2)CCN(CC(=O)[O-])CC1.[177Lu+3] (stereo partly shown) [^177Lu-PSMA-617, reference compound]
PSMA-ligand uptake in PC3 PIP model [1]: 30-40 % ID/g | Tumor-to-kidney ratio [2]: 0.17 | Kidney uptake [2]: 17.4 % ID/g | Tumor uptake [2]: 13.6 % ID/g | PSMA-ligand uptake in the xenograft model used ([2]; typical, mouse xenografts): 10-15 % ID/g | Median survival [3]: 20 days

NC(=O)CN1CCN(CC(N)=O)CCN(CC(N)=O)C(Cc2ccc(NC(=S)NCC3CCC(C(=O)NC(Cc4ccc5ccccc5c4)C(=O)NCCCCC(NC(=O)NC(CCC(=O)O)C(=O)O)C(=O)O)CC3)cc2)CN(CC(N)=O)CC1.[212Pb+2] (stereo not shown) [^212Pb-p-SCN-Bn-TCMC-PSMA ligand 1]
^212Pb-p-SCN-Bn-TCMC-PSMA ligand 1 to PSMA-617 ratio, blood ([2]; 4 h after injection): 1.21 | ^212Pb-p-SCN-Bn-TCMC-PSMA ligand 1 to PSMA-617 ratio, kidneys ([2]; 4 h after injection): 0.20 | ^212Pb-p-SCN-Bn-TCMC-PSMA ligand 1 to PSMA-617 ratio, liver ([2]; 4 h after injection): 2.67 | ^212Pb-p-SCN-Bn-TCMC-PSMA ligand 1 to PSMA-617 ratio, spleen ([2]; 4 h after injection): 0.71 | ^212Pb-p-SCN-Bn-TCMC-PSMA ligand 1 to PSMA-617 ratio, tumor ([2]; 4 h after injection, ^224Ra/^212Pb solution): 1.35 | Tumor-to-kidney ratio [2]: 0.40 | Kidney uptake [2]: 8.1 % ID/g | Tumor uptake [2]: 13.9 % ID/g | Tumor to tissue ratio, Tumor/Femur ([4]; 1 h): 30.4 | Tumor to tissue ratio, Tumor/blood ([4]; 1 h): 14.9 | Tumor to tissue ratio, Tumor/kidneys ([4]; 1 h): 0.41 | Tumor to tissue ratio, Tumor/muscle ([4]; 1 h): 42.6 | Tumor to tissue ratio, Tumor/Femur ([4]; 2 h): 39.7 | Tumor to tissue ratio, Tumor/blood ([4]; 2 h): 29.4 | Tumor to tissue ratio, Tumor/kidneys ([4]; 2 h): 0.62 | Tumor to tissue ratio, Tumor/muscle ([4]; 2 h): 72.1 | Tumor to tissue ratio, Tumor/Femur ([4]; 4 h): 24.8 | Tumor to tissue ratio, Tumor/blood ([4]; 4 h): 30.7 | Tumor to tissue ratio, Tumor/kidneys ([4]; 4 h): 1.54 | Tumor to tissue ratio, Tumor/muscle ([4]; 4 h): 61.5 | Tumor to tissue ratio, Tumor/Femur ([4]; 8 h): 19.8 | Tumor to tissue ratio, Tumor/blood ([4]; 8 h): 112.7 | Tumor to tissue ratio, Tumor/kidneys ([4]; 8 h): 3.60 | Tumor to tissue ratio, Tumor/muscle ([4]; 8 h): 366.2 | Biodistribution, Bladder ([4]; Bladder, 8 h): 0.26 % ID/g | Biodistribution, Blood ([4]; 2 h): 0.54 % ID/g | Biodistribution, Blood ([4]; 4 h): 0.46 % ID/g | Biodistribution, Blood ([4]; 8 h): 0.13 % ID/g | Biodistribution, Brain ([4]; 1 h): 0.61 % ID/g | Biodistribution, Brain ([4]; 2 h): 0.04 % ID/g | Biodistribution, Brain ([4]; 4 h): 0.07 % ID/g | Biodistribution, Brain ([4]; 8 h): 0.02 % ID/g | Biodistribution, Femur ([4]; 1 h): 0.87 % ID/g | Biodistribution, Femur ([4]; 2 h): 0.40 % ID/g | Biodistribution, Femur ([4]; 4 h): 0.57 % ID/g | Biodistribution, Femur ([4]; 8 h): 0.74 % ID/g | Biodistribution, Heart ([4]; 1 h): 0.78 % ID/g | Biodistribution, Heart ([4]; 2 h): 0.20 % ID/g | Biodistribution, Heart ([4]; 4 h): 0.52 % ID/g | Biodistribution, Heart ([4]; 8 h): 0.09 % ID/g | Biodistribution, Large intestine ([4]; 1 h): 0.25 % ID/g | Biodistribution, Large intestine ([4]; 2 h): 0.39 % ID/g | Biodistribution, Large intestine ([4]; 4 h): 0.18 % ID/g | Biodistribution, Large intestine ([4]; 8 h): 0.17 % ID/g | Biodistribution, Lungs ([4]; 2 h): 0.40 % ID/g | Biodistribution, Lungs ([4]; 4 h): 0.75 % ID/g | Biodistribution, Lungs ([4]; 8 h): 0.17 % ID/g | Biodistribution, Muscle ([4]; 1 h): 0.62 % ID/g | Biodistribution, Muscle ([4]; 2 h): 0.22 % ID/g | Biodistribution, Muscle ([4]; 4 h): 0.23 % ID/g | Biodistribution, Muscle ([4]; 8 h): 0.04 % ID/g | Biodistribution, Prostate ([4]; Prostate, 2 h): 3.80 % ID/g | Biodistribution, Salivary gland ([4]; 1 h): 0.72 % ID/g | Biodistribution, Salivary gland ([4]; 2 h): 0.32 % ID/g | Biodistribution, Salivary gland ([4]; 4 h): 0.34 % ID/g | Biodistribution, Salivary gland ([4]; 8 h): 0.15 % ID/g | Biodistribution, Skin ([4]; 1 h): 1.70 % ID/g | Biodistribution, Skin ([4]; 2 h): 0.47 % ID/g | Biodistribution, Skin ([4]; 4 h): 0.42 % ID/g | Biodistribution, Skin ([4]; 8 h): 0.23 % ID/g | Biodistribution, Skull ([4]; 1 h): 0.77 % ID/g | Biodistribution, Skull ([4]; 2 h): 0.38 % ID/g | Biodistribution, Skull ([4]; 4 h): 0.37 % ID/g | Biodistribution, Skull ([4]; 8 h): 0.63 % ID/g | Biodistribution, Small intestine ([4]; 1 h): 0.34 % ID/g | Biodistribution, Small intestine ([4]; 2 h): 0.23 % ID/g | Biodistribution, Small intestine ([4]; 4 h): 0.30 % ID/g | Biodistribution, Small intestine ([4]; 8 h): 0.08 % ID/g | Biodistribution, Spleen ([4]; 2 h): 0.44 % ID/g | Biodistribution, Spleen ([4]; 4 h): 0.54 % ID/g | Biodistribution, Spleen ([4]; 8 h): 0.36 % ID/g | Biodistribution, Stomach ([4]; 1 h): 0.16 % ID/g | Biodistribution, Stomach ([4]; 2 h): 0.22 % ID/g | Biodistribution, Stomach ([4]; 4 h): 0.10 % ID/g | Biodistribution, Stomach ([4]; 8 h): 0.09 % ID/g | Biodistribution, Testes ([4]; 2 h): 0.56 % ID/g | Biodistribution, Testes ([4]; 4 h): 0.38 % ID/g | Biodistribution, Testes ([4]; 8 h): 0.12 % ID/g | Median survival [3]: > 30 days | Radiobiological effectiveness (RBE) vs ^177Lu-PSMA-617 ([3]; C4-2 xenografts): at least 17 | Survival at day 30 after treatment ([3]; groups of 8): 75%

NC(=O)CN1CCN(CC(N)=O)CCN(CC(N)=O)C(Cc2ccc(NC(=S)NC[C@H]3CC[C@H](C(=O)N[C@@H](Cc4ccc5ccccc5c4)C(=O)NCCCC[C@H](NC(=O)N[C@@H](CCC(=O)O)C(=O)O)C(=O)O)CC3)cc2)CN(CC(N)=O)CC1 (stereo partly drawn) [p-SCN-Bn-TCMC-PSMA ligand 1, (((1S)-1-carboxy-5-((2S)-3-(naphthalen-2-yl)-2-((1r,4S)-4-((3-(4-((1,4,7,10-tetrakis(2-amino-2-oxoethyl)-1,4,7,10-tetraazacyclododecan-2-yl)methyl)phenyl)thioureido)methyl)cyclohexane-1-carboxamido)propanamido)pentyl)carbamoyl)-L-glutamic acid; trifloroacetic acid (1:4)]
Difference in cell-binding between radiolabelled p-SCN-Bn-TCMC-PSMA ligand 1 and PSMA-617 [5]: No significant difference
